Results as given in publication PMC2940852 (Biochemical pharmacology, 2010).

Tests used:
P-gp [1] = molecular target: T1, P-gp (Homo sapiens, UniProt P08183); details: human placenta brush border membrane IOVs
placental tissue [2] = experiment: Metabolism by placental tissue during perfusion; type: in vitro ADME, human; details: 4 hours of perfusion; maternal and fetal perfusate and placental tissue
placental tissue [3] = experiment: Placental viability and functional parameters during perfusion; parameters: species or system human; details: OH-bupropion 470 ng/ml, 4 hours, compared with control placentas
BCRP [4] = molecular target: T2, BCRP (Homo sapiens, UniProt Q9UNQ0); details: human placenta brush border membrane IOVs
T2 sequence (Q9UNQ0 1-655): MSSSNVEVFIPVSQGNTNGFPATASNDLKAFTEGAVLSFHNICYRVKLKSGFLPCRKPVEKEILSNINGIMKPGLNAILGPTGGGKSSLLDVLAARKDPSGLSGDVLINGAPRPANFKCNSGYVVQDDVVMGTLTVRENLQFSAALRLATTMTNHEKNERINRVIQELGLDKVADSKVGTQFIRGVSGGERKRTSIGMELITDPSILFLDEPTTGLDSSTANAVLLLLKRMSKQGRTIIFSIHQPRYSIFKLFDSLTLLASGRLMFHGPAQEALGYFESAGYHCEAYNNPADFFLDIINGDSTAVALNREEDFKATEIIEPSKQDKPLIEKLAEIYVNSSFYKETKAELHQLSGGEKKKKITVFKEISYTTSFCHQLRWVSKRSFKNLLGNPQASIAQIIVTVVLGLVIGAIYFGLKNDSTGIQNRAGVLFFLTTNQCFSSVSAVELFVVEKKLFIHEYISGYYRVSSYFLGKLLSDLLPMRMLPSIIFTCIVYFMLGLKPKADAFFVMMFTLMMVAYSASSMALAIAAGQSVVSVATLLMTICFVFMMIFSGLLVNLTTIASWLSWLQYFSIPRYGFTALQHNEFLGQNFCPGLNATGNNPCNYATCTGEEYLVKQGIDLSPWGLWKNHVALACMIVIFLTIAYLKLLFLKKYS

[5] = test system: dually-perfused human placental lobule; experiment: Transplacental transfer, dual perfusion of human placental lobule; type: in vitro ADME; details: 4 hours perfusion, closed-closed
[6] = test system: dually-perfused human placental lobule; details: human placenta; cited from earlier work
P-gp [7] = molecular target: T1, P-gp; experiment: Stimulation of P-gp ATPase activity; type: biochemical; details: insect cell membranes transfected with human P-gp
BCRP [8] = molecular target: T2, BCRP; experiment: Stimulation of BCRP ATPase activity; type: biochemical; details: insect cell membranes transfected with human BCRP

T1 sequence (P08183 whole entry, the tested form may be a part): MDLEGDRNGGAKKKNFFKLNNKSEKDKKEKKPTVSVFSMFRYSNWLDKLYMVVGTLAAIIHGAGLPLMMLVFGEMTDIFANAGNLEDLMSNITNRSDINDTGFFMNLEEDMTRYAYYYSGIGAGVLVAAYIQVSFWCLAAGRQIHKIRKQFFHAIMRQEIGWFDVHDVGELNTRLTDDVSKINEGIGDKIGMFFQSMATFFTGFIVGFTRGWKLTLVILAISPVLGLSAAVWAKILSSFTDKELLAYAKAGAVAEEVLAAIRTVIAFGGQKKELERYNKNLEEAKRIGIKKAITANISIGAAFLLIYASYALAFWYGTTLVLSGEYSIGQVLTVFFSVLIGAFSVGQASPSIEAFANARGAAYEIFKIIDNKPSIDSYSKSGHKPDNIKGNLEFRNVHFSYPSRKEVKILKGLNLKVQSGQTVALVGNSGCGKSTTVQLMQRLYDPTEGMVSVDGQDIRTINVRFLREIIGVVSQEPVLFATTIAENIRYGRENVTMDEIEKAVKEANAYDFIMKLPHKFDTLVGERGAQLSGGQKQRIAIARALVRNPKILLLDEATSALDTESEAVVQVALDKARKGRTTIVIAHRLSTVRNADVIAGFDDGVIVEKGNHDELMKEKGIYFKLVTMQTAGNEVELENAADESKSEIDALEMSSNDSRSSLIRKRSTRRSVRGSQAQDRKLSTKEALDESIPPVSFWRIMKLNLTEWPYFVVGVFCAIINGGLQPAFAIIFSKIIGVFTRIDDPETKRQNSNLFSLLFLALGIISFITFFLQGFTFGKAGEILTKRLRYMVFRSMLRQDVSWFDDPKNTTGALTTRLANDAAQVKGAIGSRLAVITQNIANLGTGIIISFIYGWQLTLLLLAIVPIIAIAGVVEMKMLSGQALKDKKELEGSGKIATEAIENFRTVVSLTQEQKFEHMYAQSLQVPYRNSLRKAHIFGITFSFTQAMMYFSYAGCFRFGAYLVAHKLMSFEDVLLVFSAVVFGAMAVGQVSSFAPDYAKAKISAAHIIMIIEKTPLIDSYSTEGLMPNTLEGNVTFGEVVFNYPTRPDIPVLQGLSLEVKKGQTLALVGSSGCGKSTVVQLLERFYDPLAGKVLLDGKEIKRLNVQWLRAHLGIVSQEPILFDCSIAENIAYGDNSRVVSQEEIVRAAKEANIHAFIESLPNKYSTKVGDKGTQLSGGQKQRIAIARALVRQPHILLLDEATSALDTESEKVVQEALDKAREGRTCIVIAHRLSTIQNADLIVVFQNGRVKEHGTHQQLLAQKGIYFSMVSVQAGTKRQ

C[C@H]1NC(C)(C)CO[C@]1(O)c1cccc(Cl)c1 [OH-bupropion, hydroxybupropion]
Transported substrate of P-gp (P-gp [1]): not a transported substrate | Biotransformation by placental enzymes during perfusion (placental tissue [2]): without undergoing biotransformation | Placental viability and functional parameters during perfusion (placental tissue [3]): unchanged | Transported substrate of BCRP (BCRP [4]): not a transported substrate | Fetal circuit concentration as % of initial concentration in maternal circuit [5]: 32 ± 3% | Concentration in the fetal circuit at the end of the experimental period ([5]; initial maternal concentration 470 ± 17 ng/ml): 151 ± 13 ng/mL

Cc1cc(=O)n(-c2ccccc2)n1C [antipyrine]
Placental transfer (freely-diffusible compounds) [6]: 30–40%

CC(NC(C)(C)C)C(=O)c1cccc(Cl)c1 (stereo not shown) [bupropion]
Vmax of stimulation of ATPase activity by P-gp (P-gp [7]): 9.5 ± 1.6 nmoles Pi/mg protein*min | Vmax of stimulation of ATPase activity by BCRP (BCRP [8]): 6 ± 0.8 nmoles Pi/mg protein*min

CN1CCC[C@H]1c1cccnc1 [nicotine]
Placental transfer (freely-diffusible compounds) [6]: 30–40%
